Measurements as given in US20060046993A1, “Crystalline polymorphic form of irinotecan hydrochloride” (Pharmacia Italia S.p.A., priority 2004, published 2006).
Where a name gives a salt, the structure may show the parent alone.

Assay: Solubility determination of irinotecan hydrochloride Form c in comparison with Form b (excess solid shaken at room temperature, HPLC assay)
Format: physicochemical

Irinotecan hydrochloride concentration (a = deionized water, 15 MIN): 11.03 mg/mL | Irinotecan hydrochloride concentration (a = deionized water, 30 MIN): 12.10 mg/mL | Irinotecan hydrochloride concentration (a = deionized water, 60 MIN): 12.12 mg/mL | Irinotecan hydrochloride concentration (a = deionized water, 120 MIN): 11.80 mg/mL | Irinotecan hydrochloride concentration (b = pH 1.2 buffer, 15 MIN): 0.45 mg/mL | Irinotecan hydrochloride concentration (b = pH 1.2 buffer, 30 MIN): 0.42 mg/mL | Irinotecan hydrochloride concentration (b = pH 1.2 buffer, 60 MIN): 0.44 mg/mL | Irinotecan hydrochloride concentration (b = pH 1.2 buffer, 120 MIN): 0.40 mg/mL | Irinotecan hydrochloride concentration (c = lactic acid pH 3.5, 15 MIN): 10.27 mg/mL | Irinotecan hydrochloride concentration (c = lactic acid pH 3.5, 24 HOURS): 11.06 mg/mL | Irinotecan hydrochloride concentration (c = lactic acid pH 3.5, 30 MIN): 10.38 mg/mL | Irinotecan hydrochloride concentration (c = lactic acid pH 3.5, 60 MIN): 10.17 mg/mL | Irinotecan hydrochloride concentration (c = lactic acid pH 3.5, 120 MIN): 11.13 mg/mL
SMILES: CCc1c2c(nc3ccc(OC(=O)N4CCC(N5CCCCC5)CC4)cc13)-c1cc3c(c(=O)n1C2)COC(=O)[C@]3(O)CC [Form b, (S)-4,11-Diethyl-3,4,12,14-tetrahydro-4-hydroxy-3,14-dioxo-1H-pyrano[3′,4′:6,7]-indolizino[1,2-b]quinolin-9-yl[1,4′-bipiperidine]-1-carboxylate hydrochloride]
